Tests used:
Type in all cases: in vivo
[1] = test system: barnyardgrass (Echinochloa crus-galli); assay: Test A preemergence, barnyardgrass; settings: 0 to 100 scale; for Barnyardgrass plant response rating: 0 is no effect, 100 is complete control
Summary of the method: (§1)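 Visual injury scores (0 no effect to 100 complete control) were assigned about 10 d after treatment by comparison with untreated controls. Test chemicals, formulated in a surfactant-containing non-phytotoxic solvent, were applied to soil at planting or to plants at the one- to two-leaf stage.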

kochia (Kochia scoparia) [2] = assay: Test A preemergence, kochia; settings: 0 to 100 scale; for Kochia plant response rating: 0 is no effect, 100 is complete control
Summary of the method: as §1

[3] = test system: ragweed (common ragweed, Ambrosia elatior); assay: Test A preemergence, ragweed; settings: 0 to 100 scale; for Ragweed plant response rating: 0 is no effect, 100 is complete control
Summary of the method: as §1

[4] = test system: ryegrass, Italian (Lolium multiflorum); assay: Test A preemergence, Italian ryegrass; settings: 0 to 100 scale; for Ryegrass, Italian plant response rating: 0 is no effect, 100 is complete control
Summary of the method: as §1

[5] = test system: foxtail, giant (Setaria faberii); assay: Test A preemergence, giant foxtail; settings: 0 to 100 scale; for Foxtail, Giant plant response rating: 0 is no effect, 100 is complete control
Summary of the method: as §1

[6] = test system: pigweed (Amaranthus retroflexus); assay: Test A preemergence, pigweed; settings: 0 to 100 scale; for Pigweed plant response rating: 0 is no effect, 100 is complete control
Summary of the method: as §1

[7] = test system: barnyardgrass (Echinochloa crus-galli); assay: Test A postemergence, barnyardgrass; settings: 0 to 100 scale
Summary of the method: as §1

kochia (Kochia scoparia) [8] = assay: Test A postemergence, kochia; settings: 0 to 100 scale
Summary of the method: as §1

[9] = test system: ragweed (common ragweed, Ambrosia elatior); assay: Test A postemergence, ragweed; settings: 0 to 100 scale
Summary of the method: as §1

[10] = test system: ryegrass, Italian (Lolium multiflorum); assay: Test A postemergence, Italian ryegrass; settings: 0 to 100 scale
Summary of the method: as §1

[11] = test system: foxtail, giant (Setaria faberii); assay: Test A postemergence, giant foxtail; settings: 0 to 100 scale
Summary of the method: as §1

[12] = test system: pigweed (Amaranthus retroflexus); assay: Test A postemergence, pigweed; settings: 0 to 100 scale
Summary of the method: as §1

[13] = test system: wheat (Triticum aestivum); assay: Test A postemergence, wheat; settings: 0 to 100 scale
Summary of the method: as §1

corn (Zea mays) = assay: Test A postemergence, corn; settings: 0 to 100 scale
Summary of the method: as §1

[14] = test system: blackgrass (Alopecurus myosuroides); assay: Test A postemergence, blackgrass; settings: 0 to 100 scale
Summary of the method: as §1

[15] = test system: galium (catchweed bedstraw, Galium aparine); assay: Test A postemergence, galium; settings: 0 to 100 scale
Summary of the method: as §1

rice (Oryza sativa) = assay: Test B flooded paddy test, rice; settings: Flood, 250 g ai/ha, applied to paddy water, 2-leaf stage, visual evaluation after 13 to 15 d
Summary of the method: (§2)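 Each response is a visual 0–100 rating made against untreated controls, where 0 is no effect and 100 is complete control; a dash marks no result. Compound was dosed into 3 cm paddy water over 2-leaf plants, assessed after 13 to 15 d.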

[16] = test system: sedge, umbrella (small-flower umbrella sedge, Cyperus difformis); assay: Test B flooded paddy test, umbrella sedge; settings: Flood, 250 g ai/ha, applied to paddy water, 2-leaf stage, visual evaluation after 13 to 15 d
Summary of the method: as §2

[17] = test system: ducksalad (Heteranthera limosa); assay: Test B flooded paddy test, ducksalad; settings: Flood, 250 g ai/ha, applied to paddy water, 2-leaf stage, visual evaluation after 13 to 15 d
Summary of the method: as §2

[18] = test system: barnyardgrass (Echinochloa crus-galli); assay: Test B flooded paddy test, barnyardgrass; settings: Flood, 250 g ai/ha, applied to paddy water, 2-leaf stage, visual evaluation after 13 to 15 d
Summary of the method: as §2

[19] = 125 g ai/ha, 0 no effect, 100 complete control
[20] = 500 g ai/ha, 0 is no effect, 100 is complete control
[21] = 500 g ai/ha, 0 no effect, 100 complete control

`C[C@H](Nc1ncc(C(F)(F)F)c(N)n1)c1cc2ccccc2s1` [Compound 5] was tested, and the “Plant response rating, Barnyardgrass” value ([1]; 125 g ai/ha) was 0, the “Plant response rating, Barnyardgrass” value ([1]; 500 g ai/ha) was 0 and the “Plant response rating, Kochia” value (kochia (Kochia scoparia) [2]; 125 g ai/ha) was 0. The “Plant response rating, Kochia” value (kochia (Kochia scoparia) [2]; 500 g ai/ha) was 0, the “Plant response rating, Ragweed” value ([3]; 125 g ai/ha) was 0 and the “Plant response rating, Ragweed” value ([3]; 500 g ai/ha) was 0. The “Plant response rating, Ryegrass, Italian” value ([4]; 125 g ai/ha) was 20, the “Plant response rating, Ryegrass, Italian” value ([4]; 500 g ai/ha) was 20 and the “Plant response rating, Foxtail, Giant” value ([5]; 125 g ai/ha) was 0. The “Plant response rating, Foxtail, Giant” value ([5]; 500 g ai/ha) was 10, the “Plant response rating, Pigweed” value ([6]; 125 g ai/ha) was 0 and the “Plant response rating, Pigweed” value ([6]; 500 g ai/ha) was 50. The “Plant response rating, Barnyardgrass” value ([7]; 125 g ai/ha) was 0, the “Plant response rating, Barnyardgrass” value ([7]; 500 g ai/ha) was 0 and the “Plant response rating, Kochia” value (kochia (Kochia scoparia) [8]; 125 g ai/ha) was 0. For the same compound, the “Plant response rating, Kochia” value (kochia (Kochia scoparia) [8]; 500 g ai/ha) was 20, the “Plant response rating, Ragweed” value ([9]; 125 g ai/ha) was 0 and the “Plant response rating, Ragweed” value ([9]; 500 g ai/ha) was 10. For the same compound, the “Plant response rating, Ryegrass, Italian” value ([10]; 125 g ai/ha) was 0, the “Plant response rating, Ryegrass, Italian” value ([10]; 500 g ai/ha) was 0 and the “Plant response rating, Foxtail, Giant” value ([11]; 125 g ai/ha) was 0. For the same compound, the “Plant response rating, Foxtail, Giant” value ([11]; 500 g ai/ha) was 0, the “Plant response rating, Pigweed” value ([12]; 125 g ai/ha) was 20 and the “Plant response rating, Pigweed” value ([12]; 500 g ai/ha) was 90. The “Plant response rating, Wheat” value ([13]; 125 g ai/ha) was 0, the “Plant response rating, Wheat” value ([13]; 500 g ai/ha) was 0 and the “Plant response rating, Corn” value (corn (Zea mays); 125 g ai/ha) was 10. For the same compound, the “Plant response rating, Corn” value (corn (Zea mays); 500 g ai/ha) was 0, the “Plant response rating, Blackgrass” value ([14]; 125 g ai/ha) was 0 and the “Plant response rating, Blackgrass” value ([14]; 500 g ai/ha) was 0. The “Plant response rating, Galium” value ([15]; 125 g ai/ha) was 0, the “Plant response rating, Galium” value ([15]; 500 g ai/ha) was 40 and the “Plant response rating, Rice (0 to 100 scale, 0 is no effect, 100 is complete control)” value (rice (Oryza sativa)) was 0. For the same compound, the “Plant response rating, Sedge, Umbrella (0 to 100 scale, 0 is no effect, 100 is complete control)” value [16] was 0, the “Plant response rating, Ducksalad (0 to 100 scale, 0 is no effect, 100 is complete control)” value [17] was 0 and the “Plant response rating, Barnyardgrass (0 to 100 scale, 0 is no effect, 100 is complete control)” value [18] was 0.

`CCC(Nc1ncc(C(F)(F)F)c(N)n1)c1coc2ccccc12` (racemic) [Compound 53] was tested, and the “Barnyardgrass plant response rating” value ([1]; 125 g ai/ha) was 0, the “Barnyardgrass plant response rating” value ([1]; 500 g ai/ha) was 80 and the “Kochia plant response rating” value (kochia (Kochia scoparia) [2]; 125 g ai/ha) was 60. The “Kochia plant response rating” value (kochia (Kochia scoparia) [2]; 500 g ai/ha) was 90, the “Ragweed plant response rating” value ([3]; 125 g ai/ha) was 100 and the “Ragweed plant response rating” value ([3]; 500 g ai/ha) was 90. For the same compound, the “Ryegrass, Italian plant response rating” value ([4]; 125 g ai/ha) was 20, the “Ryegrass, Italian plant response rating” value ([4]; 500 g ai/ha) was 20 and the “Foxtail, Giant plant response rating” value ([5]; 125 g ai/ha) was 90. The “Foxtail, Giant plant response rating” value ([5]; 500 g ai/ha) was 90, the “Pigweed plant response rating” value ([6]; 125 g ai/ha) was 80 and the “Pigweed plant response rating” value ([6]; 500 g ai/ha) was 90. The “Plant response rating, Barnyardgrass” value [7, 19] was 0, the “Barnyardgrass plant response rating” value [7, 20] was 30 and the “Plant response rating, Kochia” value (kochia (Kochia scoparia) [8]; [19]) was 50. The “Kochia plant response rating” value (kochia (Kochia scoparia) [8]; [20]) was 90, the “Plant response rating, Ragweed” value [9, 19] was 20 and the “Ragweed plant response rating” value [9, 20] was 80. The “Plant response rating, Ryegrass, Italian” value [10, 19] was 20, the “Ryegrass, Italian plant response rating” value [10, 20] was 60 and the “Plant response rating, Foxtail, Giant” value [11, 19] was 10. For the same compound, the “Foxtail, Giant plant response rating” value [11, 20] was 30, the “Plant response rating, Pigweed” value [12, 19] was 60 and the “Pigweed plant response rating” value [12, 20] was 100. The “Plant response rating, Wheat” value [13, 19] was 0, the “Wheat plant response rating” value [13, 20] was 0 and the “Plant response rating, Corn” value (corn (Zea mays); [19]) was 0. The “Corn plant response rating” value (corn (Zea mays); [20]) was 0, the “Plant response rating, Blackgrass” value [14, 19] was 0 and the “Blackgrass plant response rating” value [14, 20] was 0. The “Plant response rating, Galium” value [15, 19] was 30, the “Galium plant response rating” value [15, 20] was 80 and the “Plant response rating, Rice (0 to 100 scale, 0 is no effect, 100 is complete control)” value (rice (Oryza sativa)) was 0. For the same compound, the “Plant response rating, Sedge, Umbrella (0 to 100 scale, 0 is no effect, 100 is complete control)” value [16] was 0, the “Plant response rating, Ducksalad (0 to 100 scale, 0 is no effect, 100 is complete control)” value [17] was 0 and the “Plant response rating, Barnyardgrass (0 to 100 scale, 0 is no effect, 100 is complete control)” value [18] was 0.

In the case of `C[C@H](Nc1nc(N)c(C(F)(F)F)c(C(F)(F)F)n1)C1Cc2ccccc2C1` [Compound 68], the “Barnyardgrass plant response rating” value ([1]; 125 g ai/ha) was 0, the “Barnyardgrass plant response rating” value ([1]; 500 g ai/ha) was 0 and the “Kochia plant response rating” value (kochia (Kochia scoparia) [2]; 125 g ai/ha) was 0. The “Kochia plant response rating” value (kochia (Kochia scoparia) [2]; 500 g ai/ha) was 0, the “Ragweed plant response rating” value ([3]; 125 g ai/ha) was 0 and the “Ragweed plant response rating” value ([3]; 500 g ai/ha) was 0. The “Ryegrass, Italian plant response rating” value ([4]; 125 g ai/ha) was 0, the “Ryegrass, Italian plant response rating” value ([4]; 500 g ai/ha) was 0 and the “Foxtail, Giant plant response rating” value ([5]; 125 g ai/ha) was 0. The “Foxtail, Giant plant response rating” value ([5]; 500 g ai/ha) was 0, the “Pigweed plant response rating” value ([6]; 125 g ai/ha) was 0 and the “Pigweed plant response rating” value ([6]; 500 g ai/ha) was 0. The “Plant response rating, Barnyardgrass” value [7, 19] was 0, the “Plant response rating, Barnyardgrass” value [7, 21] was 0 and the “Plant response rating, Kochia” value (kochia (Kochia scoparia) [8]; [19]) was 20. The “Plant response rating, Kochia” value (kochia (Kochia scoparia) [8]; [21]) was 40, the “Plant response rating, Ragweed” value [9, 19] was 40 and the “Plant response rating, Ragweed” value [9, 21] was 50. The “Plant response rating, Ryegrass, Italian” value [10, 19] was 0, the “Plant response rating, Ryegrass, Italian” value [10, 21] was 0 and the “Plant response rating, Foxtail, Giant” value [11, 19] was 0. The “Plant response rating, Foxtail, Giant” value [11, 21] was 0, the “Plant response rating, Pigweed” value [12, 19] was 0 and the “Plant response rating, Pigweed” value [12, 21] was 0. For the same compound, the “Plant response rating, Wheat” value [13, 19] was 0, the “Plant response rating, Wheat” value [13, 21] was 0 and the “Plant response rating, Corn” value (corn (Zea mays); [19]) was 20. For the same compound, the “Plant response rating, Corn” value (corn (Zea mays); [21]) was 0, the “Plant response rating, Blackgrass” value [14, 19] was 0 and the “Plant response rating, Blackgrass” value [14, 21] was 0. For the same compound, the “Plant response rating, Galium” value [15, 19] was 0, the “Plant response rating, Galium” value [15, 21] was 0 and the “Plant response rating, Rice (0 to 100 scale, 0 is no effect, 100 is complete control)” value (rice (Oryza sativa)) was 0. The “Plant response rating, Sedge, Umbrella (0 to 100 scale, 0 is no effect, 100 is complete control)” value [16] was 0, the “Plant response rating, Ducksalad (0 to 100 scale, 0 is no effect, 100 is complete control)” value [17] was 0 and the “Plant response rating, Barnyardgrass (0 to 100 scale, 0 is no effect, 100 is complete control)” value [18] was 0.

— patent US20220119354A1, “DIAMINO-SUBSTITUTED PYRIDINES AND PYRIMIDINES AS HERBICIDES” (FMC Corporation, priority 2019, published 2022)
